Experimental data published in article PMC5176352, “Structural basis for subtype-specific inhibition of the P2X7 receptor” (eLife, 2016).
Read-outs that look alike come from different tables or passages of the source.

Assays:
full length pdP2X7 = full length pdP2X7 (Ailuropoda melanoleuca, UniProt G1M6C4); test: YO-PRO-1 uptake assay (inhibition of ATP-triggered dye uptake); assay type: cell-based, giant panda (Ailuropoda melanoleuca)
Source text: We further validated the drug-receptor interactions by site-directed mutagenesis on the drug-binding residues. To facilitate robust and systematic data collection, we monitored cellular uptake of the fluorescent dye, YO-PRO-1, as a proxy for receptor activity ([Surprenant et al., 1996]) (Figure 3—figure supplement 4A). […] In particular, interaction with F103 is crucial for the inhibitory action of all five drugs.
(§1) Human embryonic kidney (HEK293) cells were maintained in DMEM medium (Thermo Fisher Scientific) supplemented with 10% FBS (Atlanta Biologicals, Flowery Branch, GA), and 10 μg/mL gentamicin (Thermo Fisher Scientific). HEK293 cells were split into six well plates at a cell density of 2.0 × 10^6 cells/well and incubated overnight. […] Cells were washed with assay buffer (2 mM KCl, 0.1 mM CaCl2, 13 mM Glucose, 147 mM NaCl, 10 mM HEPES (pH 7.3)) and were incubated with 5 μM YO-PRO-1 Iodide (Thermo Fisher Scientific), in the presence or absence of antagonists at multiple concentrations at 37°C for 10 min. Upon application of 1 mM ATP (final), uptake of YO-PRO-1 was recorded with 1 min intervals by following the fluorescence change using a Synergy HT multi-detection microplate reader (Bio-Tek, Winooski, VT; Ex: 485 nm/20, Em:528 nm/20, sensitivity 60). To obtain the dose dependent uptake inhibition by antagonists, the initial rates of YO-PRO-1 uptake were plotted against multiple concentrations of the P2X7 specific drugs. The inhibition curves from five independent measurements were fitted to the Hill equation using Origin software (Originlab, Northampton, MA) to determine the IC50 values.

wildtype pdP2X7 = wildtype pdP2X7 (Ailuropoda melanoleuca, UniProt G1M6C4); test: BzATP dose response of YO-PRO-1 uptake with antagonists, fitted with competitive / non-competitive inhibition models; assay type: cell-based, giant panda (Ailuropoda melanoleuca); details: for Kb: curve fitting of BzATP dose responses
Source text: To clarify the working mechanism for each drug, we measured the dose responses of the P2X7 mediated YO-PRO-1 uptake in the presence of each drug at multiple concentrations. We used BzATP—an artificial but potent agonist of P2X7 receptors—for these experiments to achieve saturating responses in the presence of concentrated antagonist.
as §1
Dose response curves of the YO-PRO-1 uptake experiments were fitted with either competitive or non-competitive inhibition models using Origin 6.0 software (OriginLab) as previously described ([Kenakin, 2006]). For the competitive antagonism model, we used the equation: Response=[A]/KA/[A]KA(1+τ)+[B]/KB+1
where [A] , [B] are the concentrations of BzATP and antagonists, respectively; KA and KB are the equilibrium dissociation-constant of BzATP and antagonists, respectively. […] KB was then determined using the dose response curves in the presence of antagonists. […] For the non-competitive inhibition model, we used the equation: Response=([A]^nτ^nEmax)/([A]^nτ^n+([A](1+α[B]/KB)+KA[B]/KB+KA)^n
where n is the Hill coefficient, and Emax is the maximum initial rate. […] Schild regression analysis was performed as described previously ([Wyllie and Chen, 2007]). Briefly, concentrations of BzATP at half maximal initial rates of YO-PRO-1 uptake in the presence (EC50’) or absence (EC50) of antagonists were determined by fitting the dose responses with the Hill equation.

P2X7 receptor = target: P2X7 receptor; parameters: method as in Yan et al., 2010; details: under physiological ion concentrations; ref Yan et al., 2010; read-out: EC50 for initial activation; cited from earlier work
pdP2X7 = target: T1, pdP2X7 (Ailuropoda melanoleuca, UniProt G1M6C4); test: Whole cell patch clamp ATP dose response
T1 sequence (G1M6C4 2-606): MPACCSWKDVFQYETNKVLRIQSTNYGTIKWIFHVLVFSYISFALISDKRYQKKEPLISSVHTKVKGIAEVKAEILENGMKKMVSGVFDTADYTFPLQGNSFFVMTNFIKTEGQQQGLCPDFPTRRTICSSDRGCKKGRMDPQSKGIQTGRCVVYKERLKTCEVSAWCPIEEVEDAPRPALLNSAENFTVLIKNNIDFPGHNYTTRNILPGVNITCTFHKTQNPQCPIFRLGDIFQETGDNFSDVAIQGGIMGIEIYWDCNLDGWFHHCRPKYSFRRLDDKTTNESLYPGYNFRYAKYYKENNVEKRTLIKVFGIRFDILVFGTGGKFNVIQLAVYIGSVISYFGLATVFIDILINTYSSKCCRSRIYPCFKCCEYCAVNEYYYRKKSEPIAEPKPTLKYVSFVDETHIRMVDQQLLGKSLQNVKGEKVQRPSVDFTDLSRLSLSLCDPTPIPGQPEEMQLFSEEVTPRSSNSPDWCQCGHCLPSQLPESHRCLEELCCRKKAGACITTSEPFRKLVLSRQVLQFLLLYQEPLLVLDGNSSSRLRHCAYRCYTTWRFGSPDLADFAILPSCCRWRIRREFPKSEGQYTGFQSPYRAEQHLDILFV

pdP2X7cryst = target: T2, pdP2X7cryst (Ailuropoda melanoleuca, UniProt G1M6C4, E175K/N242S/N285S/R126A/V36A); test: Whole cell patch clamp ATP dose response
T2 sequence (G1M6C4 23-360 V36A/R126A/E175K/N242S/N285S): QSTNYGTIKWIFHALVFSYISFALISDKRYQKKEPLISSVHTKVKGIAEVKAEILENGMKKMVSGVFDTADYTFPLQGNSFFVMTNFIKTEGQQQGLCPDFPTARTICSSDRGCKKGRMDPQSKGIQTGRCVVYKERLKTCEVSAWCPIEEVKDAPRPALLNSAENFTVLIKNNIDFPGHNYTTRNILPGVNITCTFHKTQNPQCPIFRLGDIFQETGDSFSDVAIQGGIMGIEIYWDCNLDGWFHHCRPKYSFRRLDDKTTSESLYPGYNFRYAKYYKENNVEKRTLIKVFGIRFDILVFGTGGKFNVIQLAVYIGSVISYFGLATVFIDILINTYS

[1] = KB (equilibrium dissociation-constant of antagonist), competitive antagonism model, competitive model
[2] = KB (equilibrium dissociation-constant of antagonist), non-competitive inhibition model, non-competitive model, α = 1
[3] = data without antagonists, non-competitive model equation
[4] = dose response without antagonist, competitive model equation
[5] = HEK293 cells, YO-PRO-1 uptake initiated with 1 mM ATP, initial rates, wildtype, read-out: IC50
[6] = competitive model, read-out: KB (equilibrium dissociation-constant of antagonist), competitive antagonism model
[7] = non-competitive model, α = 1, read-out: KB (equilibrium dissociation-constant of antagonist), non-competitive inhibition model

`O=C(CC12CC3CC(CC(C3)C1)C2)Nc1cccc2nc(NCCNCCO)ccc12` [AZ10606120] showed an IC50 (full length pdP2X7) of 0.231 µM, a Kb (wildtype pdP2X7; [1]) of 0.056 µM and a Kb (wildtype pdP2X7; [2]) of 3.4 µM.
`Cc1ccc(CN2CCNCC2)cc1NC(=O)CNc1ccc(F)c(F)c1` [GW791343] showed an IC50 (full length pdP2X7) of 8.9 µM, a Kb (wildtype pdP2X7; [1]) of 3 µM and a Kb (wildtype pdP2X7; [2]) of 266 µM.
In the case of `O=C(NCC1(N2CCN(c3ccccc3)CC2)CCOCC1)c1cccnc1Sc1ccccc1` [JNJ47965567], the IC50 (full length pdP2X7) is reported as 0.0119 µM, the Kb (wildtype pdP2X7; [1]) is reported as 0.0017 µM and the Kb (wildtype pdP2X7; [2]) is reported as 0.14 µM.
In the case of `Nc1ncnc2c1ncn2[C@@H]1O[C@H](COP(=O)(O)OP(=O)(O)OP(=O)(O)O)[C@@H](OC(=O)c2ccc(C(=O)c3ccccc3)cc2)[C@H]1O` [BzATP], the “KA (equilibrium dissociation-constant of BzATP), non-competitive inhibition model” value (wildtype pdP2X7; [3]) is reported as 220 µM, the “n (Hill coefficient), non-competitive inhibition model” value (wildtype pdP2X7; [3]) is reported as 2.6 and the “τ, non-competitive inhibition model” value (wildtype pdP2X7; [3]) is reported as 10. For the same compound, the “KA (equilibrium dissociation-constant of BzATP), competitive antagonism model” value (wildtype pdP2X7; [4]) was 28 µM and the “τ, competitive antagonism model” value (wildtype pdP2X7; [4]) was 0.031.
For `Nc1ncnc2c1ncn2[C@@H]1O[C@H](COP(=O)(O)OP(=O)(O)OP(=O)(O)O)[C@@H](O)[C@H]1O` [ATP, adenosine triphosphate], the EC50 (P2X7 receptor) is given as at least 1000 µM, the EC50 (pdP2X7) is given as 122 µM and the EC50 (pdP2X7cryst) is given as 40 µM.
For `C[C@H](N/C(=N/C#N)Nc1cccc2ncccc12)c1ccccc1` [A804598, 2-cyano-1-[(1S)-1-phenylethyl]-3-quinolin-5-ylguanidine], the IC50 (full length pdP2X7; [5]) was 0.0217 µM, the Kb (wildtype pdP2X7; [6]) was 0.015 µM and the Kb (wildtype pdP2X7; [7]) was 0.57 µM.
Work on `COc1ccc(CC(=O)NC(N/C(=N/C#N)Nc2cccc3ncccc23)C(C)(C)C)cc1OC` (centres unmarked) [A740003, N-(1-{[(cyanoimino)(5-quinolinylamino)methyl]amino}-2,2-dimethylpropyl)-2-(3,4-dimethoxyphenyl)acetamide] yielded an IC50 (full length pdP2X7; [5]) of 0.0693 µM, a Kb (wildtype pdP2X7; [6]) of 0.024 µM and a Kb (wildtype pdP2X7; [7]) of 1.2 µM.
